Reference: publication PMC4106721, “Structure of a Membrane-Embedded Prenyltransferase Homologous to UBIAD1” (PLoS Biology, 2014)

Legend:
Assay in all cases: isothermal titration calorimetry
Format in all cases: binding
[1] = target: T1, AfUbiA (Archaeoglobus fulgidus, UniProt O28625, D198A)
T1 construct: gene AF_1648; full gene in modified pET vector, N-terminal His-tag removed with TEV protease, expressed in E. coli BL21(DE3), DM-solubilised for ITC or in lipidic cubic phase for crystals; likely monomer
T1 sequence (O28625 entry or part of it D198A): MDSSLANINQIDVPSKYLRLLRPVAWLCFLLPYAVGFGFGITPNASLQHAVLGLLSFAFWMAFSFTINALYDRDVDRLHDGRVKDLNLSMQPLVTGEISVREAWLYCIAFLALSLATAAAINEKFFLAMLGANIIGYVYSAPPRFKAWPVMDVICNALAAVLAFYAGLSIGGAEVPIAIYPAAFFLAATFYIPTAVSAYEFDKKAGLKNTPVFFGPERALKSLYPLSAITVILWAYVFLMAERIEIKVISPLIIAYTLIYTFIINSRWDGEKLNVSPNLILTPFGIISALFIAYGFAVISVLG

[2] = target: T2, AfUbiA (Archaeoglobus fulgidus, UniProt O28625)
T2 construct: gene AF_1648; full gene in modified pET vector, N-terminal His-tag removed with TEV protease, expressed in E. coli BL21(DE3), DM-solubilised for ITC or in lipidic cubic phase for crystals; likely monomer
T2 sequence (O28625 1-303): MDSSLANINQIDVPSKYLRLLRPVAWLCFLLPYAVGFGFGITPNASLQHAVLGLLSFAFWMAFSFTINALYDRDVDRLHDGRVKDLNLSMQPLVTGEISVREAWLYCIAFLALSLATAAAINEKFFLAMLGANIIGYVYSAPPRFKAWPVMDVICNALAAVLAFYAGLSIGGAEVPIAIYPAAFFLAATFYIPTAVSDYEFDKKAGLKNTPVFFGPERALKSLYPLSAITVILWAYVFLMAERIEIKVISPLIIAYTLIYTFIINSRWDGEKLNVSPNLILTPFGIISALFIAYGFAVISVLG

[3] = target: T3, AfUbiA (Archaeoglobus fulgidus, UniProt O28625, D72A); conditions: 2 mM MgCl2, pH 7.5, 25 °C, 4 mM DM
T3 construct: gene AF_1648; full gene in modified pET vector, N-terminal His-tag removed with TEV protease, expressed in E. coli BL21(DE3), DM-solubilised for ITC or in lipidic cubic phase for crystals; likely monomer
T3 sequence (O28625 entry or part of it D72A): as the sequence (O28625 entry or part of it D198A) above, with D72A, A198D counted along it

[4] = target: T4, AfUbiA (Archaeoglobus fulgidus, UniProt O28625, K146A); conditions: 2 mM MgCl2, pH 7.5, 25 °C, 4 mM DM
T4 construct: gene AF_1648; full gene in modified pET vector, N-terminal His-tag removed with TEV protease, expressed in E. coli BL21(DE3), DM-solubilised for ITC or in lipidic cubic phase for crystals; likely monomer
T4 sequence (O28625 entry or part of it K146A): as the sequence (O28625 entry or part of it D198A) above, with K146A, A198D counted along it

[5] = target: T5, AfUbiA (Archaeoglobus fulgidus, UniProt O28625, R22A); conditions: 2 mM MgCl2, pH 7.5, 25 °C, 4 mM DM
T5 construct: gene AF_1648; full gene in modified pET vector, N-terminal His-tag removed with TEV protease, expressed in E. coli BL21(DE3), DM-solubilised for ITC or in lipidic cubic phase for crystals; likely monomer
T5 sequence (O28625 entry or part of it R22A): as the sequence (O28625 entry or part of it D198A) above, with R22A, A198D counted along it

[6] = target: T6, AfUbiA (Archaeoglobus fulgidus, UniProt O28625, D202A)
T6 construct: gene AF_1648; full gene in modified pET vector, N-terminal His-tag removed with TEV protease, expressed in E. coli BL21(DE3), DM-solubilised for ITC or in lipidic cubic phase for crystals; likely monomer
T6 sequence (O28625 entry or part of it D202A): as the sequence (O28625 entry or part of it D198A) above, with A198D, D202A counted along it

[7] = target: T7, AfUbiA (Archaeoglobus fulgidus, UniProt O28625, N68A); conditions: 2 mM MgCl2, pH 7.5, 25 °C, 4 mM DM
T7 construct: gene AF_1648; full gene in modified pET vector, N-terminal His-tag removed with TEV protease, expressed in E. coli BL21(DE3), DM-solubilised for ITC or in lipidic cubic phase for crystals; likely monomer
T7 sequence (O28625 entry or part of it N68A): as the sequence (O28625 entry or part of it D198A) above, with N68A, A198D counted along it

Kd [1]: 144 ± 13 µM
Kd [2]: 3.2 ± 0.1 µM
Kd [6]: 67 ± 9 µM
Compound: CC(C)=CCC/C(C)=C/COP(=O)(O)OP(=O)(O)O [geranyl diphosphate]
no binding detected (N.D.) [3]: Four of the mutations completely abolished GPP binding
no binding detected (N.D.) [4]: Four of the mutations completely abolished GPP binding
no binding detected (N.D.) [5]: Four of the mutations completely abolished GPP binding
no binding detected (N.D.) [7]: Four of the mutations completely abolished GPP binding
